From the supplement of paper PMC11061612

Experiments:
[1] = system: DEL (T-Cell Non-Hodgkin's Lymphoma); assay: Bliss excess, mean over the matrix (fraction); higher = more synergy
Procedure, shortened: (§1)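 Bliss excess equals the observed combination effect minus the expected value EA + EB − EA·EB, where EA and EB are the effects of each agent alone. Combination Emax is the second-highest inhibition within the matrix. Inhibition was scaled from CellTiter-Glo 2.0 luminescence, with 0 set by vehicle wells and 1 by blank wells, after 72 hours of two-drug dosing of cells plated in 1536-well plates.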

[2] = system: DoTc2-4510 (Cervical Carcinoma); assay: as above
Procedure, shortened: as §1

[3] = system: Hs-578-T (Breast Carcinoma); assay: as above
Procedure, shortened: as §1

[4] = system: KELLY (Neuroblastoma); assay: as above
Procedure, shortened: as §1

[5] = system: KURAMOCHI (Ovarian Carcinoma); assay: as above
Procedure, shortened: as §1

[6] = system: LB831-BLC (Bladder Carcinoma); assay: as above
Procedure, shortened: as §1

[7] = system: LU-135 (Small Cell Lung Carcinoma); assay: as above
Procedure, shortened: as §1

[8] = system: ME-1 (Acute Myeloid Leukemia); assay: as above
Procedure, shortened: as §1

[9] = system: NB10 (Neuroblastoma); assay: as above
Procedure, shortened: as §1

[10] = system: NOS-1 (Osteosarcoma); assay: as above
Procedure, shortened: as §1

[11] = system: OVCA420 (Ovarian Carcinoma); assay: as above
Procedure, shortened: as §1

[12] = system: RC-K8 (B-Cell Non-Hodgkin's Lymphoma); assay: as above
Procedure, shortened: as §1

[13] = system: RO82-W-1 (Thyroid Gland Carcinoma); assay: as above
Procedure, shortened: as §1

[14] = system: T98G (Glioblastoma); assay: as above
Procedure, shortened: as §1

[15] = system: CaR-1 (Colorectal Carcinoma); assay: combination Emax (second highest fraction inhibited in the dose matrix, 72 h); higher = more inhibition; extreme values may be limits of the assay
Procedure, shortened: as §1

[16] = system: HOS (Osteosarcoma); assay: as above
Procedure, shortened: as §1

[17] = system: HT-1376 (Bladder Carcinoma); assay: as above
Procedure, shortened: as §1

[18] = system: KYSE-520 (Esophageal Squamous Cell Carcinoma); assay: as above
Procedure, shortened: as §1

[19] = system: NCI-H82 (Small Cell Lung Carcinoma); assay: as above
Procedure, shortened: as §1

[20] = system: SK-ES-1 (Ewing's Sarcoma); assay: as above
Procedure, shortened: as §1

SMILES	Bliss excess [1]	Bliss excess [2]	Bliss excess [3]	Bliss excess [4]	Bliss excess [5]	Bliss excess [6]	Bliss excess [7]	Bliss excess [8]	Bliss excess [9]	Bliss excess [10]	Bliss excess [11]	Bliss excess [12]	Bliss excess [13]	Bliss excess [14]	combination Emax [15]	combination Emax [16]	combination Emax [17]	combination Emax [18]	combination Emax [19]	combination Emax [20]
CN(CCO)CC[C@H](CSc1ccccc1)Nc1ccc(S(=O)(=O)NC(=O)c2ccc(N3CCC([C@@H](O)c4ccccc4-c4ccc(Cl)cc4)CC3)cc2)cc1S(=O)(=O)C(F)(F)F [AZD4320] + C1CN(CCC1(C(=O)N[C@@H](CCO)C2=CC=C(C=C2)Cl)N)C3=NC=NC4=C3C=CN4 [Capivasertib] (first compound max 1 µM, 7x7, partner max 3 µM)	-0.0028	0.0501	-0.0198	-0.0433	-0.0393	-0.0212	0.0051	-0.0374	-0.0288	-0.0386	-0.0601	-0.0241	-0.0513	-0.0371	0.21	0.229	0.74	0.329	0.255	0.94
CN(CCO)CC[C@H](CSc1ccccc1)Nc1ccc(S(=O)(=O)NC(=O)c2ccc(N3CCC([C@@H](O)c4ccccc4-c4ccc(Cl)cc4)CC3)cc2)cc1S(=O)(=O)C(F)(F)F [AZD4320] + C=CCn1c(=O)c2cnc(Nc3ccc(N4CCN(C)CC4)cc3)nc2n1-c1cccc(C(C)(C)O)n1 [AZD1775] (first compound max 1 µM, partner max 1 µM)	0.0464	0.0205	0.022	0.0505	0.0419	0.0317	0.0636	0.0475	0.0304	0.0894	-0.0291	0.0829	-0.0364	0.0317	0.241	0.379	0.718	0.552	0.932	1
CN(CCO)CC[C@H](CSc1ccccc1)Nc1ccc(S(=O)(=O)NC(=O)c2ccc(N3CCC([C@@H](O)c4ccccc4-c4ccc(Cl)cc4)CC3)cc2)cc1S(=O)(=O)C(F)(F)F [AZD4320] + CCN(CCO)CCCOc1ccc2c(Nc3cc(CC(=O)Nc4cccc(F)c4)[nH]n3)ncnc2c1 [AZD2811] (first compound max 1 µM, 7x7, partner max 1 µM)	-0.124	0.114	0.183	0.051	0.0224	0.0234	-0.0124	0.0068	-0.0097	0.0616	-0.0352	0.17	0.0032	0.0346	0.208	0.12	0.784	0.292	0.512	1
CN(CCO)CC[C@H](CSc1ccccc1)Nc1ccc(S(=O)(=O)NC(=O)c2ccc(N3CCC([C@@H](O)c4ccccc4-c4ccc(Cl)cc4)CC3)cc2)cc1S(=O)(=O)C(F)(F)F [AZD4320] + CN(C)CCCOc1ccc(-c2ccc3ncc4c(c3c2)n(C2CCOCC2)c(=O)n4C)cn1 [AZD0156] (first compound max 1 µM, 7x7, partner max 1 µM)	0.0265	-0.12	-0.0178	0.077	-0.0367	-0.0403	0.0332	-0.0069	-0.0056	0.0203	-0.0206	0.0161	-0.0258	-0.044	0.0707	0.0916	0.484	0.157	0.282	0.899
CN(CCO)CC[C@H](CSc1ccccc1)Nc1ccc(S(=O)(=O)NC(=O)c2ccc(N3CCC([C@@H](O)c4ccccc4-c4ccc(Cl)cc4)CC3)cc2)cc1S(=O)(=O)C(F)(F)F [AZD4320] + C[C@@H]1COCCN1C2=NC(=NC(=C2)C3(CC3)[S@](=N)(=O)C)C4=C5C=CNC5=NC=C4 [AZD6738] (first compound max 1 µM, 7x7, partner max 10 µM)	0.0294	-0.0202	-0.136	0.033	0.0158	-0.0415	0.0417	0.0166	-0.0515	0.038	0.006	-0.011	-0.0025	-0.0468	0.514	0.722	0.718	0.672	0.932	1
CN(CCO)CC[C@H](CSc1ccccc1)Nc1ccc(S(=O)(=O)NC(=O)c2ccc(N3CCC([C@@H](O)c4ccccc4-c4ccc(Cl)cc4)CC3)cc2)cc1S(=O)(=O)C(F)(F)F [AZD4320] + C[C@@H](Nc1cc(F)cc(F)c1)c1cc(C(=O)N(C)C)cc2c(=O)cc(N3CCOCC3)oc12 [AZD8186] (first compound max 1 µM, 7x7, partner max 3 µM)	0.0784	0.0252	-0.0314	0.029	0.0147	0.0441	0.0404	0.0013	-0.0357	-0.0096	0.002	-0.015	-0.0581	0.0151	0.246	0.37	0.551	0.34	0.231	0.987
CN(CCO)CC[C@H](CSc1ccccc1)Nc1ccc(S(=O)(=O)NC(=O)c2ccc(N3CCC([C@@H](O)c4ccccc4-c4ccc(Cl)cc4)CC3)cc2)cc1S(=O)(=O)C(F)(F)F [AZD4320] + Cc1cc2ncnn2cc1Nc1ncc2c(n1)n(C1CCOCC1)c(=O)n2C [AZD7648] (first compound max 1 µM, 7x7, partner max 10 µM)	-0.0346	-0.0144	0.0165	0.0306	-0.0239	0.0041	0.0109	0.0237	-0.0281	0.0375	-0.0436	0.0198	-0.0613	-0.0493	0.125	0.134	0.786	0.23	0.299	0.911
CN(CCO)CC[C@H](CSc1ccccc1)Nc1ccc(S(=O)(=O)NC(=O)c2ccc(N3CCC([C@@H](O)c4ccccc4-c4ccc(Cl)cc4)CC3)cc2)cc1S(=O)(=O)C(F)(F)F [AZD4320] + Cn1cnc2c(F)c(Nc3ccc(Br)cc3Cl)c(C(=O)NOCCO)cc21 [Selumetinib] (first compound max 1 µM, 7x7, partner max 3 µM)	0.103	-0.021	-0.0492	0.0525	0.0636	-0.0298	0.0266	0.0484	0	0.0796	0.0225	0.0467	-0.0139	0.0206	0.294	0.368	0.687	0.401	0.265	0.983
COc1nnc2ccc(N3CCC(c4ccc(OCCN5CCN(C)C(=O)[C@H]5C)cc4)CC3)nn12 [AZD5153] + C=CCn1c(=O)c2cnc(Nc3ccc(N4CCN(C)CC4)cc3)nc2n1-c1cccc(C(C)(C)O)n1 [AZD1775] (first compound max 1 µM, partner max 1 µM)	-0.0679	-0.018	-0.0661	-0.0581	-0.0373	-0.0157	-0.004	-0.0446	-0.0727	-0.0371	-0.0589	-0.101	0.038	-0.0092	0.451	0.501	0.517	0.656	0.914	0.941
COc1nnc2ccc(N3CCC(c4ccc(OCCN5CCN(C)C(=O)[C@H]5C)cc4)CC3)nn12 [AZD5153] + CC1(C)CCC(CN2CCN(c3ccc(C(=O)NS(=O)(=O)c4ccc(NCC5CCOCC5)c([N+](=O)[O-])c4)c(Oc4cnc5[nH]ccc5c4)c3)CC2)=C(c2ccc(Cl)cc2)C1 [Venetoclax] (first compound max 1 µM, 7x7, partner max 1 µM)	-0.0559	-0.0405	-0.0614	-0.0857	-0.0471	-0.0627	-0.001	0.0529	-0.0566	-0.0078	-0.0527	-0.0587	-0.0712	-0.0115	0.384	0.454	0.242	0.615	0.467	0.579
COc1nnc2ccc(N3CCC(c4ccc(OCCN5CCN(C)C(=O)[C@H]5C)cc4)CC3)nn12 [AZD5153] + CCN(CCO)CCCOc1ccc2c(Nc3cc(CC(=O)Nc4cccc(F)c4)[nH]n3)ncnc2c1 [AZD2811] (first compound max 1 µM, 7x7, partner max 1 µM)	-0.0462	-0.0067	-0.0345	-0.0406	-0.0149	-0.0647	-0.0449	-0.0534	-0.0289	-0.0391	-0.0547	0.0154	-0.0483	-0.014	0.367	0.486	0.256	0.605	0.481	0.941
COc1nnc2ccc(N3CCC(c4ccc(OCCN5CCN(C)C(=O)[C@H]5C)cc4)CC3)nn12 [AZD5153] + C[C@@H]1COCCN1C2=NC(=NC(=C2)C3(CC3)[S@](=N)(=O)C)C4=C5C=CNC5=NC=C4 [AZD6738] (first compound max 1 µM, 7x7, partner max 10 µM)	0.0007	0.0412	-0.0231	-0.0107	0.0157	0.0393	0.0397	-0.0693	0.0214	0.0006	-0.0057	-0.0424	0.0259	-0.0206	0.518	0.704	0.481	0.681	0.878	0.929
COc1nnc2ccc(N3CCC(c4ccc(OCCN5CCN(C)C(=O)[C@H]5C)cc4)CC3)nn12 [AZD5153] + Cc1c2c(nn1C)CSCc1cc(n(C)n1)CSc1cc(c3ccccc3c1)OCCCc1c(C(=O)O)n(C)c3c-2c(Cl)ccc13 [AZD5991] (first compound max 1 µM, 7x7, partner max 1 µM)	-0.0475	-0.0358	-0.0338	0.0357	0.0332	-0.0588	0.0517	-0.0162	-0.0446	0.0399	-0.0933	-0.0446	-0.0181	0.0021	0.434	0.879	0.264	0.585	0.968	0.948
